Patent US6664283B1, “Pharmaceuticals for neurogenic pain” (Yamanouchi Pharmaceutical Co., Ltd., priority 1999, dated 2003)
Where two headings read alike, the source gives them in different places.

What was measured:
[1] = tested on: STZ-induced diabetes mice; assay: tail pinch test in STZ-induced diabetes mice model; format: in vivo, ICR mice; conditions: 45 minutes after administration, STZ mice day 15
Experimental: The test was carried out by modifying a previously reported method (Pharmacol. Biochem. Behav., 39, 541-544, 1991). STZ at a dose of 200 mg/kg was intraperitoneally administered to 4-weeks-old ICR mice. A pre-drug tail pinch test was carried out in the afternoon at the fourteenth day after the STZ-administration, and animals showing a reaction latency of 3 seconds or less were subjected to the next day's test. At the fifteenth day after the STZ-administration, each drug was administered orally and a post-drug tail pinch test was carried out 45 minutes after the drug administration. […] Statistical analysis was performed with Steel test between the control group and drug-administered group (* and ** in the table are as follows; *p<0.05, **p<0.01 vs. control group).

mGluR1 α = biological target: T1, mGluR1 α (Rattus norvegicus, UniProt P23385); assay: PI hydrolysis assay in mGluR1 α-expressed NIH3T3 cells; format: cell-based; conditions: 100 μM glutamate, read-out: IC50 value, inhibition of PI formation induced by 100 μM glutamate
T1 construct: expressed in transfected cells; host or cells: NIH3T3
T1 sequence (P23385 19-1199): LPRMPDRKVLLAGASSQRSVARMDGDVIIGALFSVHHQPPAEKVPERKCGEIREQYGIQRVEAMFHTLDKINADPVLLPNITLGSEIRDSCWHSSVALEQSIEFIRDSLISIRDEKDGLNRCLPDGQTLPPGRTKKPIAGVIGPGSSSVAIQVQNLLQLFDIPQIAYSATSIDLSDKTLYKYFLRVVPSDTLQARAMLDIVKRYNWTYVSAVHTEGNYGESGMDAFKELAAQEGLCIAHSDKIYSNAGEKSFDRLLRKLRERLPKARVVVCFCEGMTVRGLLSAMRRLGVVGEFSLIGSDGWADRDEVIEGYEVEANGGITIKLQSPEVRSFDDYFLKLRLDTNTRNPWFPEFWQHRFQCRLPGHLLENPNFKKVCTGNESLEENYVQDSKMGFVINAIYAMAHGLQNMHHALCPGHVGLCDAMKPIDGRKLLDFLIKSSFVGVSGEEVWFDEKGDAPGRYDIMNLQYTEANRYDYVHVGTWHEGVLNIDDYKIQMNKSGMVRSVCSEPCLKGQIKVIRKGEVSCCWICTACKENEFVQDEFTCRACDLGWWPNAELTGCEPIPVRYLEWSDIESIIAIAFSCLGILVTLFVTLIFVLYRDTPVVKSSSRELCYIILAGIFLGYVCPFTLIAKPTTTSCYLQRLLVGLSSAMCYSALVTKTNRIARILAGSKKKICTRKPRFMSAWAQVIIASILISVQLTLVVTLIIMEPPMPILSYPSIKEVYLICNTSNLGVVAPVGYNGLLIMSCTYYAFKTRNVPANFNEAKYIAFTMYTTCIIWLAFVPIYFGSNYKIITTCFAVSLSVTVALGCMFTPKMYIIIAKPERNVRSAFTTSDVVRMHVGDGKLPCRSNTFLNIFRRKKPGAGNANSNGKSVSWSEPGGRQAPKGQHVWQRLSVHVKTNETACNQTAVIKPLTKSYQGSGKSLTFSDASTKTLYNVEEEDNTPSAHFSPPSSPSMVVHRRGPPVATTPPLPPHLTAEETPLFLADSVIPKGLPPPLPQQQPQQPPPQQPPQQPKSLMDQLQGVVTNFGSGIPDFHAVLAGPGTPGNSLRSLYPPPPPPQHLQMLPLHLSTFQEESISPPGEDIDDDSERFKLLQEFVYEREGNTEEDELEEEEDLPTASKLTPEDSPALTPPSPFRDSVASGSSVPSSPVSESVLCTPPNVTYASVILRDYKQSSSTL
Experimental: Measurement of inhibition activity by mGluR1 α expression cell The NIH3T3 cell lines expressing individually mGluR1 α and mGluR5a were cultured using DMEM containing 10% dialyzed fetal calf serum and 100 units/ml, 0.1 mg/ml of streptomycin sulfate. The CHO cell lines expressing individually mGluR2, R4, R6 and R7 were cultured using DMEM containing 10% dialyzed fetal calf serum, 100 units/ml, 0.1 mg/ml of streptomycin sulfate and 2 mM glutamine. Using the mGluR1 α-expressed cells labeled with ^3H-inositol, hydrolysis of phosphatidylinositol was measured as described previously(Nature, 383, 89-92, 1996).

mGluR1 = biological target: T2, mGluR1 (Rattus norvegicus, UniProt P23385); assay: PI hydrolysis assay in cerebellar granule cells (mGluR1 antagonistic activity); format: cell-based
T2 construct: endogenous in cells; host or cells: primary cerebellar granule cells from Wistar rats aged 7 to 8 days
T2 sequence (P23385 19-1199): as above
Experimental: 1. Measurement of mGluR1 Antagonistic Activity Using Cerebellar Granule Cells The whole brain was removed from each of seven Wistar rats of 7 to 8 days of age after birth (Japan S L C), and then the cerebellum was isolated in an L-15 medium (Gibco) under a stereoscopic microscope. The isolated cerebellum was cut into pieces using a surgical knife and incubated at 37° C. for 15 minutes in 0.25% trypsin solution (Gibco) containing 750 U/ml of DNase I (Sigma). After termination of the enzyme reaction by adding fetal calf serum (JRH Biosciences), the tissue pieces were centrifuged and the supernatant was removed by sucking. After adding 10 ml of a high potassium medium, cells were dissociated by 5 to 6 times passage through a plastic pipette. After filtering the cell dispersion through a nylon mesh (40 μm pore), viable cells were counted. The cells were diluted in the high potassium medium and then seeded at a density of 8×10^5 cells/well onto 24-well culture plates (Sumitomo Bakelite) precoated with poly-L-lysine. […] High potassium medium: BME (Gibco)+10% immobilized fetal calf serum+25 mM KCl+1% penicillin/streptomycin (Gibco) The PI hydrolysis was measured as described by Aramori et al(Neuron, 8, 757-765, 1992). […] The eluate was mixed with a liquid scintillator (Aquasol-2) and the radioactivity in the eluate was determined by a liquid scintillation spectrometer.

[2] = tested on: nerve ligation-induced neuropathic pain animal models; conditions: cited from earlier work; for cold hyperalgesia / development of mechanical allodynia: intrathecal twice-daily on post-operative days 0-8
mGluR5a = biological target: T3, mGluR5a (Rattus norvegicus, UniProt P31424); assay: intracellular calcium concentration in mGluR5a-expressed NIH3T3 cells; format: cell-based; conditions: up to 10 μM
T3 construct: expressed in transfected cells; host or cells: NIH3T3
T3 sequence (P31424 21-1171 isoform P31424-2 limits assumed): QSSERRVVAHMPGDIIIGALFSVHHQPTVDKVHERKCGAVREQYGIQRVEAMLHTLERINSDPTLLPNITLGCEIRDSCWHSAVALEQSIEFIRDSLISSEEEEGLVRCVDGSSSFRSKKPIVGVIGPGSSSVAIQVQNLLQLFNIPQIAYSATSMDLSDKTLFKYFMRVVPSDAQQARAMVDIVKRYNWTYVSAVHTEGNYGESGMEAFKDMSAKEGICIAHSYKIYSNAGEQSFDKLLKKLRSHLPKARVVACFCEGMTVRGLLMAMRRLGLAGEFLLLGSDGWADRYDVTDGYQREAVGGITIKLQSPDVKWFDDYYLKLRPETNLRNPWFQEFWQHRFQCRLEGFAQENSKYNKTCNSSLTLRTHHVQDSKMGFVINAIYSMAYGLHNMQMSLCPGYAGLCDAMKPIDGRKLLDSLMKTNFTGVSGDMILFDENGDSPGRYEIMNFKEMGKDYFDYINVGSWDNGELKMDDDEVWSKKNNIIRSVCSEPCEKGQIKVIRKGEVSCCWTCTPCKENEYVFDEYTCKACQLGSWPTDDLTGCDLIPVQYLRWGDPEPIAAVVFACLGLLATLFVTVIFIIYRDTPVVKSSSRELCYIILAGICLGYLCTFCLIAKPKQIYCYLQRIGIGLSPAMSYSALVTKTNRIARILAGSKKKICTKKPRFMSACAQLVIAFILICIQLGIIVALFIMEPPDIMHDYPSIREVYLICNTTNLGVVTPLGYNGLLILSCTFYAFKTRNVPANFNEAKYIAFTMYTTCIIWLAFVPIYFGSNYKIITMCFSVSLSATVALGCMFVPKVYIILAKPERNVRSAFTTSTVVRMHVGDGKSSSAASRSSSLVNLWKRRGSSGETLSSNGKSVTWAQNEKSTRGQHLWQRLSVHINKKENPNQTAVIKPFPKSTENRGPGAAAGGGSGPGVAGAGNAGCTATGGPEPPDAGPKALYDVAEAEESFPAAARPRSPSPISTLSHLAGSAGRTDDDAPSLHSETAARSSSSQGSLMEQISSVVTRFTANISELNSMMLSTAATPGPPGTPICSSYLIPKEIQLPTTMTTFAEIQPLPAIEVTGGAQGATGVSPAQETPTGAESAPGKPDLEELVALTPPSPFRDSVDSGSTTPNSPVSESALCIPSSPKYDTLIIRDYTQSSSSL
Experimental: (§1) The NIH3T3 cell lines expressing individually mGluR1 α and mGluR5a were cultured using DMEM containing 10% dialyzed fetal calf serum and 100 units/ml, 0.1 mg/ml of streptomycin sulfate. The CHO cell lines expressing individually mGluR2, R4, R6 and R7 were cultured using DMEM containing 10% dialyzed fetal calf serum, 100 units/ml, 0.1 mg/ml of streptomycin sulfate and 2 mM glutamine. Intracellular calcium concentration of the mGluR5a-expressed cells was measured using a spectrofluorometer as described previously (Nature, 383, 89-92, 1996).

mGluR6 = biological target: T4, mGluR6 (Rattus norvegicus, UniProt P35349); assay: intracellular cAMP after forskolin stimulation in mGluR6-expressing CHO cells; format: cell-based; conditions: up to 100 μM; cAMP formation
T4 construct: expressed in transfected cells; host or cells: CHO
T4 sequence (P35349 24-871): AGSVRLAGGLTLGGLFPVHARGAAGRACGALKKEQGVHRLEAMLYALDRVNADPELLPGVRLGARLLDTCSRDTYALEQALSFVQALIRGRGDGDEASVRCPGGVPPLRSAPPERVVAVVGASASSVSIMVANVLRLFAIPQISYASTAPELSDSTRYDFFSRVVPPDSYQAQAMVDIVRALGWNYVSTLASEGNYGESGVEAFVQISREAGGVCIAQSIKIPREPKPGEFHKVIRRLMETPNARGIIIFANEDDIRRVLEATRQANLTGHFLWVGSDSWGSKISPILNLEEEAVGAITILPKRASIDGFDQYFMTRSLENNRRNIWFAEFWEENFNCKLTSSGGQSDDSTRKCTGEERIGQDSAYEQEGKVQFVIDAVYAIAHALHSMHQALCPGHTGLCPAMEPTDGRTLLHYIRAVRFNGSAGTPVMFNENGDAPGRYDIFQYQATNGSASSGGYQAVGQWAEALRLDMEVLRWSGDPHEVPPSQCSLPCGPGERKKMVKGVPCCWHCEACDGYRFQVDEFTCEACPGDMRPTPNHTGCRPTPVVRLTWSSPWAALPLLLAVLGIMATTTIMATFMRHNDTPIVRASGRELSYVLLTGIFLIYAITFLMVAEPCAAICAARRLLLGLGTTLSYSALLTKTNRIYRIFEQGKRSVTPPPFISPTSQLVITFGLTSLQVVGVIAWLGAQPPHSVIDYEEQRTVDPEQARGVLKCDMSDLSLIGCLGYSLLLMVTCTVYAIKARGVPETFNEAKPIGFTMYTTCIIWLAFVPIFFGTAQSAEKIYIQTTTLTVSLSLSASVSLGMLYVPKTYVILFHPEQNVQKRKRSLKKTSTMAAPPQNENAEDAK
Experimental: as §1, with “Using cell lines expressing individually mGluR2, R6 and R7, cAMP formation after forskolin stimulation in the presence” for “Intracellular calcium concentration”, “IBMX” for “the mGluR5a-expressed cells”, “cAMP assay kit” for “spectrofluorometer”, “(Neuron, 8, 169-179, 1992).” for “(Nature, 383, 89-92, 1996).”

[3] = tested on: spinal L5/L6 nerve-ligated rats; assay: von Frey hair (VFH) test in spinal L5/L6 nerve-ligated rats; format: in vivo, SD rats; conditions: 30 or 100 mg/kg po; 45 minutes after administration; 7 days after operation
Experimental: The test was carried out by modifying a previously reported method (Pain, 50, 355-363, 1992). SD rats were used. The left side lumbar nerves (L5 and L6) of each animal were ligated with silk threads under pentobarbital anesthesia. The following test was carried out 7 days after the operation.
After 45 minutes of oral administration of drug, von Frey hair (VFH) test was carried out to measure a mechanical pain threshold. The measurement was carried out on both hindpaws.
Although there was little difference in the mechanical pain thresholds between the left and right hindpaw in sham-operated rats in which the threshold was 17 to 20 g (log(g): 1.23-1.30), the obvious reduction of the mechanical pain threshold in the operated side hinpaw was found in spinal L5/L6 nerve-ligated rats.
Statistical analysis was performed with Dunnet test and carried out on each side hindpaw between the control group and drug-administered groups (** and *** in the table are as follows; **p<0.01, ***p<0.001 vs. control group).

mGluR2 = biological target: T5, mGluR2 (Rattus norvegicus, UniProt P31421); assay: intracellular cAMP after forskolin stimulation in mGluR2-expressing CHO cells; format: cell-based; conditions: up to 100 μM; cAMP formation
T5 construct: expressed in transfected cells; host or cells: CHO
T5 sequence (P31421 19-872): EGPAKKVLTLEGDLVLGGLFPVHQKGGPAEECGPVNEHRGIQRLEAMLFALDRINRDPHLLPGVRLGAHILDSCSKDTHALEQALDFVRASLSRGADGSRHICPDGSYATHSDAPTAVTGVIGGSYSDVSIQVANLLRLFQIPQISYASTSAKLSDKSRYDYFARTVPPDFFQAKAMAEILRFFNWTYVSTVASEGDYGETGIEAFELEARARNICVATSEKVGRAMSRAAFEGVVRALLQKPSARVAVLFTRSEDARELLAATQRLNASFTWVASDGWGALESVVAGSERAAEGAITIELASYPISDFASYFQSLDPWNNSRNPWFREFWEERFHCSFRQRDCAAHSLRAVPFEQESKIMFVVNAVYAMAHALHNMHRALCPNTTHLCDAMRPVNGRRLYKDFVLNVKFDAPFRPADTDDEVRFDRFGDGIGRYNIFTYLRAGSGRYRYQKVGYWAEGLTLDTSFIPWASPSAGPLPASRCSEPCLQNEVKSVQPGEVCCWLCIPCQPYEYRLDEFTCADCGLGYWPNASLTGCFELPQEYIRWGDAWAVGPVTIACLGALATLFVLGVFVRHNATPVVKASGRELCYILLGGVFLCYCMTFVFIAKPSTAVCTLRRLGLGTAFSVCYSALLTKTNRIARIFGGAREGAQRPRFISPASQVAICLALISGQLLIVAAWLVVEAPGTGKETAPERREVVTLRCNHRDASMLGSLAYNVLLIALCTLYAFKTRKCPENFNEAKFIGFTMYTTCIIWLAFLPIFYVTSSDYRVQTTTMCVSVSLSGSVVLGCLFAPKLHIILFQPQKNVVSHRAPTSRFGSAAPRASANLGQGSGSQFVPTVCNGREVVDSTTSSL
Experimental: as §1, with “Using cell lines expressing individually mGluR2, R6 and R7, cAMP formation after forskolin stimulation in the presence” for “Intracellular calcium concentration”, “IBMX” for “the mGluR5a-expressed cells”, “cAMP assay kit” for “spectrofluorometer”, “(Neuron, 8, 169-179, 1992).” for “(Nature, 383, 89-92, 1996).”

mGluR7 = biological target: T6, mGluR7 (Rattus norvegicus, UniProt P35400); assay: intracellular cAMP after forskolin stimulation in mGluR7-expressing CHO cells; format: cell-based; conditions: up to 100 μM; cAMP formation
T6 construct: expressed in transfected cells; host or cells: CHO
T6 sequence (P35400 35-915): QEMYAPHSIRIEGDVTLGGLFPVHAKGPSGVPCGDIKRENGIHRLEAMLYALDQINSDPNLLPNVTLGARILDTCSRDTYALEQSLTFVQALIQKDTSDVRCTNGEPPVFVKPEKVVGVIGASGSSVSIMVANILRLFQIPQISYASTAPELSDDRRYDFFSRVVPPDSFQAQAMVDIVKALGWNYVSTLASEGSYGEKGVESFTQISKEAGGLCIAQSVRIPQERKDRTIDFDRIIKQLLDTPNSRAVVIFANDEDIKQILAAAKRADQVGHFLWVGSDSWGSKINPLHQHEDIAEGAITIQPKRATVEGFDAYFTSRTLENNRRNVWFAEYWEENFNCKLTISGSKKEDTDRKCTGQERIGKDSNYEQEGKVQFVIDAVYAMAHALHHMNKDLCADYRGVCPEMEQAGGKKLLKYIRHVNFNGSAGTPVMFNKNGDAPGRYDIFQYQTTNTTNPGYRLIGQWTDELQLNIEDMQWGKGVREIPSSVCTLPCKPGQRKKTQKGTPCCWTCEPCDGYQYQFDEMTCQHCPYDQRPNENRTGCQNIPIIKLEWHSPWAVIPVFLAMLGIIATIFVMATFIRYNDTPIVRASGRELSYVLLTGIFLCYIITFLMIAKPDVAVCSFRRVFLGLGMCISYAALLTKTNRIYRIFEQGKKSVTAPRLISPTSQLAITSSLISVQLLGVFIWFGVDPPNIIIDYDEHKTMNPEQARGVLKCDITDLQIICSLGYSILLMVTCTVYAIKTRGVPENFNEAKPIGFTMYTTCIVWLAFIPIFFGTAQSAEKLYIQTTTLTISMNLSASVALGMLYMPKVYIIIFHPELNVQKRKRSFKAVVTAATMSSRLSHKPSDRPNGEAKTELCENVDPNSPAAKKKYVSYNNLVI
Experimental: as §1, with “Using cell lines expressing individually mGluR2, R6 and R7, cAMP formation after forskolin stimulation in the presence” for “Intracellular calcium concentration”, “IBMX” for “the mGluR5a-expressed cells”, “cAMP assay kit” for “spectrofluorometer”, “(Neuron, 8, 169-179, 1992).” for “(Nature, 383, 89-92, 1996).”

IC50 (mGluR1 α) [nM]	IC50 (mGluR1) [nM]	Compound	reaction latency in tail pinch test ([1]; 10 mg/kg po)	cold hyperalgesia ([2]; assessed on days 4 and 8)	development of mechanical allodynia ([2]; assessed on days 4 and 8)	cold hyperalgesia ([2]; assessed on days 12 and 16)	development of mechanical allodynia ([2]; assessed on days 12 and 16)	development of lowered pain threshold ([2]; intrathecal twice-daily on post-operative days 8-11, any day of the test)	agonist or antagonist activity for mGluR5 (mGluR5a)	agonist or antagonist activity for mGluR6 (mGluR6)	reaction latency in tail pinch test ([1]; 30 mg/kg po)	mechanical pain threshold in the operated side hindpaw (VFH test) [3]	agonist or antagonist activity for mGluR2 (mGluR2)	agonist or antagonist activity for mGluR7 (mGluR7)
1.7	2	C[C@H]1CCCC[C@H]1N(C)C(=O)c1cn2c(nc3ccc(N)cc32)s1.Cl.Cl [compound B, (+)-(1R,2S)-6-amino-N-methyl-N-(2-methylcyclohexyl)thiazolo [3,2-a]benzoimidazole-2-carboxamide dihydrochloride]	significantly prolonged the latency											
		N[C@H](C(=O)O)c1ccc(C(=O)O)cc1 [(S)-4CPG, (S)-4-carboxyphenylglycine]		attenuated cold hyperalgesia	inhibited a development of mechanical allodynia	did not have an effect	did not have an effect	did not inhibit development of lowered pain threshold						
	22	Cc1c(C(=O)N(C)C2CCCCC2)sc2nc3ccc(N)cc3n12.Cl.Cl [compound A, 6-amino-N-cyclohexyl-N, 3-dimethylthiazolo[3,2-a]benzoimidazole-2-carboxamide dihydrochloride]							did not show any agonist or antagonist activity	did not show any agonist or antagonist activity	significantly prolonged the reaction latency	improved lowered mechanical pain thresholds	did not show any agonist or antagonist activity	did not show any agonist or antagonist activity
